Laboratory results as given in PubChem BioAssay AID248 (DTP/NCI, 2004).
“And” between values parts separate entries of the source, which are not always exact repeats. Equal entries are not always repeated. Inconclusive results and toxic doses are left out.

Test system: L1210 leukemia ip in BDF1 mice, survival T/C
Experiment: NCI In Vivo Anticancer Drug Screen. Data for tumor model L1210 Leukemia (intraperitoneal) in B6D2F1 (BDF1) mice
Conditions: endpoint: mean survival time, higher = longer survival
Method in brief: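 Survival endpoint. Drug-treated group vs vehicle group, expressed as T divided by C. Tumor passaged by transplantation.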

`O=NN(CCCl)C(=O)NC1CC2CCC1C2` (centres undefined) was tested, and the T/C (dose: 1.04 mg/kg/injection, schedule: Q#B X Z (ip), vehicle: other) was 96 % of control, the T/C (dose: 2.0 mg/kg/injection, schedule: Q01DX001 (ip), vehicle: carboxymethylcellulose (CMC)) was 112 % of control and the T/C (dose: 3.1 mg/kg/injection, schedule: Q01DX015 (ip), vehicle: other) was 114 % of control. For the same compound, the T/C (dose: 3.12 mg/kg/injection, schedule: Q03HX008 (oral), vehicle: carboxymethylcellulose (CMC)) was 188 % of control, the T/C (dose: 3.12 mg/kg/injection, schedule: Q03HX024 (oral), vehicle: carboxymethylcellulose (CMC)) was 261 % of control and the T/C (dose: 4.0 mg/kg/injection, schedule: Q01DX001 (ip), vehicle: carboxymethylcellulose (CMC)) was 115 % of control. For the same compound, the T/C (dose: 4.9 mg/kg/injection, schedule: Q01DX015 (ip), vehicle: other) was 210 % of control, the T/C (dose: 6.25 mg/kg/injection, schedule: Q01DX001 (im), vehicle: other) was 112 % of control and the T/C (dose: 6.25 mg/kg/injection, schedule: Q01DX001 (ip), vehicle: other) was 109 % of control and 118 % of control. For the same compound, the T/C (dose: 6.25 mg/kg/injection, schedule: Q01DX001 (ip), vehicle: saline) was 98 % of control and 101 % of control, the T/C (dose: 6.25 mg/kg/injection, schedule: Q01DX001 (iv), vehicle: other) was 105 % of control and the T/C (dose: 6.25 mg/kg/injection, schedule: Q01DX001 (oral), vehicle: other) was 100 % of control. The T/C (dose: 6.25 mg/kg/injection, schedule: Q01DX001 (sc), vehicle: other) was 114 % of control, the T/C (dose: 6.25 mg/kg/injection, schedule: Q03DX Z (ip), vehicle: other) was 156 % of control and the T/C (dose: 6.25 mg/kg/injection, schedule: Q03HX008 (oral), vehicle: carboxymethylcellulose (CMC)) was 188 % of control. For the same compound, the T/C (dose: 6.25 mg/kg/injection, schedule: Q07DX Z (ip), vehicle: other) was 121 % of control, the T/C (dose: 8.0 mg/kg/injection, schedule: Q01DX001 (ip), vehicle: carboxymethylcellulose (CMC)) was 124 % of control and the T/C (dose: 8.0 mg/kg/injection, schedule: Q01DX009 (ip), vehicle: carboxymethylcellulose (CMC)) was 227 % of control. The T/C (dose: 8.0 mg/kg/injection, schedule: Q01DX009 (oral), vehicle: carboxymethylcellulose (CMC)) was 227 % of control, the T/C (dose: 8.0 mg/kg/injection, schedule: Q04DX003 (ip), vehicle: carboxymethylcellulose (CMC)) was 150 % of control and the T/C (dose: 8.33 mg/kg/injection, schedule: Q#B X Z (ip), vehicle: other) was 105 % of control. The T/C (dose: 9.6 mg/kg/injection, schedule: Q## X032 (ip), vehicle: other) was 150 % of control, the T/C (dose: 12.0 mg/kg/injection, schedule: Q01DX001 (ip), vehicle: carboxymethylcellulose (CMC)) was 124 % of control and the T/C (dose: 12.5 mg/kg/injection, schedule: Q01DX001 (ip), vehicle: other) was 150 % of control. For the same compound, the T/C (dose: 12.5 mg/kg/injection, schedule: Q01DX001 (ip), vehicle: saline) was 103 % of control and 106 % of control, the T/C (dose: 12.5 mg/kg/injection, schedule: Q01DX001 (sc), vehicle: other) was 151 % of control and the T/C (dose: 12.5 mg/kg/injection, schedule: Q03DX Z (ip), vehicle: other) was 235 % of control. For the same compound, the T/C (dose: 12.5 mg/kg/injection, schedule: Q04DX003 (oral), vehicle: carboxymethylcellulose (CMC)) was 177 % of control, the T/C (dose: 12.5 mg/kg/injection, schedule: Q07DX Z (ip), vehicle: other) was 179 % of control and the T/C (dose: 14.5 mg/kg/injection, schedule: Q## X001 (ip), vehicle: other) was 172 % of control. The T/C (dose: 15.0 mg/kg/injection, schedule: Q## X032 (ip), vehicle: other) was 158 % of control, the T/C (dose: 16.0 mg/kg/injection, schedule: Q01DX001 (ip), vehicle: carboxymethylcellulose (CMC)) was 179 % of control and the T/C (dose: 16.0 mg/kg/injection, schedule: Q01DX015 (ip), vehicle: other) was 261 % of control. The T/C (dose: 16.0 mg/kg/injection, schedule: Q04DX003 (ip), vehicle: carboxymethylcellulose (CMC)) was 193 % of control, the T/C (dose: 25.0 mg/kg/injection, schedule: Q01DX001 (im), vehicle: other) was 214 % of control and the T/C (dose: 25.0 mg/kg/injection, schedule: Q01DX001 (ip), vehicle: carboxymethylcellulose (CMC)) was 196 % of control. For the same compound, the T/C (dose: 25.0 mg/kg/injection, schedule: Q01DX001 (ip), vehicle: other) was 220 % of control, the T/C (dose: 25.0 mg/kg/injection, schedule: Q01DX001 (oral), vehicle: other) was 210 % of control and the T/C (dose: 25.0 mg/kg/injection, schedule: Q01DX001 (sc), vehicle: other) was 227 % of control. For the same compound, the T/C (dose: 25.0 mg/kg/injection, schedule: Q03HX008 (ip), vehicle: carboxymethylcellulose (CMC)) was 107 % of control, the T/C (dose: 25.0 mg/kg/injection, schedule: Q03HX008 (oral), vehicle: carboxymethylcellulose (CMC)) was 155 % of control and the T/C (dose: 25.0 mg/kg/injection, schedule: Q03HX024 (oral), vehicle: carboxymethylcellulose (CMC)) was 150 % of control. For the same compound, the T/C (dose: 25.0 mg/kg/injection, schedule: Q03HX040 (ip), vehicle: carboxymethylcellulose (CMC)) was 114 % of control, the T/C (dose: 25.0 mg/kg/injection, schedule: Q04DX005 (ip), vehicle: carboxymethylcellulose (CMC)) was 186 % of control and the T/C (dose: 26.0 mg/kg/injection, schedule: Q01DX001 (ip), vehicle: carboxymethylcellulose (CMC)) was 162 % of control. The T/C (dose: 29.0 mg/kg/injection, schedule: Q01DX001 (ip), vehicle: other) was 180 % of control and 240 % of control, the T/C (dose: 29.25 mg/kg/injection, schedule: Q01DX001 (oral), vehicle: other) was 156 % of control and 160 % of control and the T/C (dose: 29.25 mg/kg/injection, schedule: Q## X001 (oral), vehicle: other) was 196 % of control. For the same compound, the T/C (dose: 30.0 mg/kg/injection, schedule: Q01DX001 (oral), vehicle: other) was 229 % of control, the T/C (dose: 32.0 mg/kg/injection, schedule: Q01DX009 (ip), vehicle: carboxymethylcellulose (CMC)) was 196 % of control and the T/C (dose: 32.0 mg/kg/injection, schedule: Q01DX009 (oral), vehicle: carboxymethylcellulose (CMC)) was 187 % of control. The T/C (dose: 32.4 mg/kg/injection, schedule: Q01DX001 (ip), vehicle: carboxymethylcellulose (CMC)) was 109 % of control, the T/C (dose: 35.0 mg/kg/injection, schedule: Q## X032 (ip), vehicle: other) was 158 % of control and the T/C (dose: 40.0 mg/kg/injection, schedule: Q01DX001 (ip), vehicle: carboxymethylcellulose (CMC)) was 191 % of control. For the same compound, the T/C (dose: 50.0 mg/kg/injection, schedule: Q01DX001 (ip), vehicle: saline) was 242 % of control, the T/C (dose: 50.0 mg/kg/injection, schedule: Q01DX009 (oral), vehicle: carboxymethylcellulose (CMC)) was 200 % of control and the T/C (dose: 50.0 mg/kg/injection, schedule: Q04DX005 (ip), vehicle: carboxymethylcellulose (CMC)) was 230 % of control. The T/C (dose: 50.0 mg/kg/injection, schedule: Q07DX Z (ip), vehicle: other) was 223 % of control, the T/C (dose: 50.0 mg/kg/injection, schedule: Q## X009 (ip), vehicle: carboxymethylcellulose (CMC)) was 190 % of control and the T/C (dose: 53.0 mg/kg/injection, schedule: Q## X032 (ip), vehicle: other) was 121 % of control. For the same compound, the T/C (dose: 54.0 mg/kg/injection, schedule: Q01DX001 (ip), vehicle: carboxymethylcellulose (CMC)) was 115 % of control, the T/C (dose: 64.0 mg/kg/injection, schedule: Q01DX005 (ip), vehicle: carboxymethylcellulose (CMC)) was 119 % of control and the T/C (dose: 64.0 mg/kg/injection, schedule: Q01DX009 (ip), vehicle: carboxymethylcellulose (CMC)) was 123 % of control. The T/C (dose: 64.0 mg/kg/injection, schedule: Q01DX009 (oral), vehicle: carboxymethylcellulose (CMC)) was 106 % of control, the T/C (dose: 64.0 mg/kg/injection, schedule: Q04DX003 (ip), vehicle: carboxymethylcellulose (CMC)) was 118 % of control and the T/C (dose: 66.0 mg/kg/injection, schedule: Q## X004 (ip), vehicle: other) was 191 % of control. For the same compound, the T/C (dose: 88.0 mg/kg/injection, schedule: Q01DX001 (oral), vehicle: other) was 167 % of control, the T/C (dose: 90.0 mg/kg/injection, schedule: Q01DX001 (ip), vehicle: carboxymethylcellulose (CMC)) was 242 % of control and the T/C (dose: 100.0 mg/kg/injection, schedule: Q01DX001 (ip), vehicle: carboxymethylcellulose (CMC)) was 227 % of control. The T/C (dose: 100.0 mg/kg/injection, schedule: Q01DX001 (ip), vehicle: other) was 225 % of control, the T/C (dose: 100.0 mg/kg/injection, schedule: Q01DX001 (oral), vehicle: carboxymethylcellulose (CMC)) was 245 % of control and the T/C (dose: 100.0 mg/kg/injection, schedule: Q01DX001 (oral), vehicle: other) was 190 % of control. The T/C (dose: 100.0 mg/kg/injection, schedule: Q01DX001 (sc), vehicle: other) was 221 % of control, the T/C (dose: 100.0 mg/kg/injection, schedule: Q01DX005 (ip), vehicle: carboxymethylcellulose (CMC)) was 108 % of control and the T/C (dose: 100.0 mg/kg/injection, schedule: Q01DX017 (ip), vehicle: carboxymethylcellulose (CMC)) was 118 % of control. For the same compound, the T/C (dose: 100.0 mg/kg/injection, schedule: Q04DX003 (oral), vehicle: carboxymethylcellulose (CMC)) was 194 % of control, the T/C (dose: 100.0 mg/kg/injection, schedule: Q## X006 (oral), vehicle: carboxymethylcellulose (CMC)) was 161 % of control and the T/C (dose: 100.0 mg/kg/injection, schedule: Q## X009 (ip), vehicle: carboxymethylcellulose (CMC)) was 111 % of control. For the same compound, the T/C (dose: 117.0 mg/kg/injection, schedule: Q01DX001 (oral), vehicle: other) was 105 % of control, the T/C (dose: 117.0 mg/kg/injection, schedule: Q## X001 (oral), vehicle: other) was 122 % of control and the T/C (dose: 128.0 mg/kg/injection, schedule: Q01DX001 (ip), vehicle: carboxymethylcellulose (CMC)) was 104 % of control. For the same compound, the T/C (dose: 128.0 mg/kg/injection, schedule: Q01DX001 (oral), vehicle: carboxymethylcellulose (CMC)) was 245 % of control, the T/C (dose: 128.0 mg/kg/injection, schedule: Q01DX005 (ip), vehicle: carboxymethylcellulose (CMC)) was 93 % of control and the T/C (dose: 187.0 mg/kg/injection, schedule: Q01DX001 (ip), vehicle: carboxymethylcellulose (CMC)) was 224 % of control. For the same compound, the T/C (dose: 200.0 mg/kg/injection, schedule: Q01DX001 (ip), vehicle: carboxymethylcellulose (CMC)) was 94 % of control and 111 % of control, the T/C (dose: 200.0 mg/kg/injection, schedule: Q01DX001 (ip), vehicle: other) was 118 % of control and the T/C (dose: 200.0 mg/kg/injection, schedule: Q01DX001 (iv), vehicle: other) was 183 % of control. The T/C (dose: 200.0 mg/kg/injection, schedule: Q01DX001 (oral), vehicle: carboxymethylcellulose (CMC)) was 122 % of control, the T/C (dose: 200.0 mg/kg/injection, schedule: Q04DX005 (ip), vehicle: carboxymethylcellulose (CMC)) was 96 % of control and the T/C (dose: 256.0 mg/kg/injection, schedule: Q01DX001 (sc), vehicle: carboxymethylcellulose (CMC)) was 109 % of control. For the same compound, the T/C (dose: 400.0 mg/kg/injection, schedule: Q01DX001 (ip), vehicle: other) was 107 % of control, the T/C (dose: 125.0 micrograms/kg/injection, schedule: Q03HX024 (ip), vehicle: carboxymethylcellulose (CMC)) was 114 % of control and the T/C (dose: 250.0 micrograms/kg/injection, schedule: Q03HX024 (ip), vehicle: carboxymethylcellulose (CMC)) was 165 % of control. The T/C (dose: 2000.0 micrograms/kg/injection, schedule: Q03HX008 (ip), vehicle: carboxymethylcellulose (CMC)) was 253 % of control.
